What was measured:
Experiment in all cases: relative viability (nuclei count vs DMSO), 5 days (fraction); higher = more cells survive
[1] = compound: CC1=C(C(=O)N2C=CSC2=N1)CCN3CCC(=C(C4=CC=CC=C4)C5=CC=C(C=C5)F)CC3 + CC(C)C[C@H](NC(=O)[C@H](Cc1ccccc1)NC(=O)c1cnccn1)B(O)O [Bortezomib] (partner 0.002 µM)
In short: (§1)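 Lung cancer cell lines in 1536-well plates got either a single drug or a fixed anchor-drug dose together with five library-drug doses (not always all listed) in √10 steps, by pin tool, on the day after seeding. Nuclei were counted after 5 days, and relative viability is the treated-to-vehicle ratio of nuclei counts. Values are medians of duplicate plates.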

[2] = compound: CC1=C(C(=O)N2C=CSC2=N1)CCN3CCC(=C(C4=CC=CC=C4)C5=CC=C(C=C5)F)CC3 + NC(=O)Nc1cc(-c2cccc(F)c2)sc1C(=O)N[C@H]1CCCNC1 [AZD7762] (partner 0.2 µM)
In short: as §1

[3] = compound: CC1=C(C(=O)N2C=CSC2=N1)CCN3CCC(=C(C4=CC=CC=C4)C5=CC=C(C=C5)F)CC3 + Cc1cc(Nc2cc(N3CCN(C)CC3)nc(Sc3ccc(NC(=O)C4CC4)cc3)n2)n[nH]1 [Tozasertib] (partner 0.1 µM)
In short: as §1

[4] = compound: CC1=C(C(=O)N2C=CSC2=N1)CCN3CCC(=C(C4=CC=CC=C4)C5=CC=C(C=C5)F)CC3 + Nc1ncn([C@H]2C[C@H](O)[C@@H](CO)O2)c(=O)n1 [Decitabine] (partner 2 µM)
In short: as §1

Cell Line: LOU-NH91
- relative viability ([1]; first compound 0.08 µM): 0.508
- relative viability ([1]; first compound 0.253 µM): 0.507
- relative viability ([1]; first compound 0.8 µM): 0.483
- relative viability ([1]; first compound 2.53 µM): 0.481
- relative viability ([1]; first compound 8 µM): 0.55
- relative viability ([2]; first compound 0.08 µM): 0.763
- relative viability ([2]; first compound 0.253 µM): 0.714
- relative viability ([2]; first compound 0.8 µM): 0.833
- relative viability ([2]; first compound 2.53 µM): 0.84
- relative viability ([2]; first compound 8 µM): 0.691
- relative viability ([3]; first compound 0.08 µM): 0.7
- relative viability ([3]; first compound 0.253 µM): 0.6
- relative viability ([3]; first compound 0.8 µM): 0.688
- relative viability ([3]; first compound 2.53 µM): 0.701
- relative viability ([3]; first compound 8 µM): 0.605
- relative viability ([4]; first compound 0.08 µM): 0.796
- relative viability ([4]; first compound 0.253 µM): 0.832
- relative viability ([4]; first compound 0.8 µM): 0.834
- relative viability ([4]; first compound 2.53 µM): 0.926
- relative viability ([4]; first compound 8 µM): 0.792

Cell Line: HCC-15
- relative viability ([1]; first compound 0.08 µM): 1.05
- relative viability ([1]; first compound 0.253 µM): 1.04
- relative viability ([1]; first compound 0.8 µM): 1.09
- relative viability ([1]; first compound 2.53 µM): 0.964
- relative viability ([1]; first compound 8 µM): 0.786
- relative viability ([2]; first compound 0.08 µM): 1.18
- relative viability ([2]; first compound 0.253 µM): 1.43
- relative viability ([2]; first compound 0.8 µM): 1.28
- relative viability ([2]; first compound 2.53 µM): 1.15
- relative viability ([2]; first compound 8 µM): 1.09
- relative viability ([3]; first compound 0.08 µM): 0.347
- relative viability ([3]; first compound 0.253 µM): 0.447
- relative viability ([3]; first compound 0.8 µM): 0.379
- relative viability ([3]; first compound 2.53 µM): 0.368
- relative viability ([3]; first compound 8 µM): 0.281
- relative viability ([4]; first compound 0.08 µM): 0.831
- relative viability ([4]; first compound 0.253 µM): 0.651
- relative viability ([4]; first compound 0.8 µM): 0.601
- relative viability ([4]; first compound 2.53 µM): 0.642
- relative viability ([4]; first compound 8 µM): 0.604

Cell Line: LXF-289
- relative viability ([1]; first compound 0.08 µM): 1.08
- relative viability ([1]; first compound 0.253 µM): 1.13
- relative viability ([1]; first compound 0.8 µM): 1.05
- relative viability ([1]; first compound 2.53 µM): 0.97
- relative viability ([1]; first compound 8 µM): 0.933
- relative viability ([2]; first compound 0.08 µM): 0.789
- relative viability ([2]; first compound 0.253 µM): 1.22
- relative viability ([2]; first compound 0.8 µM): 1.14
- relative viability ([2]; first compound 2.53 µM): 1.13
- relative viability ([2]; first compound 8 µM): 0.515
- relative viability ([3]; first compound 0.08 µM): 0.219
- relative viability ([3]; first compound 0.253 µM): 0.265
- relative viability ([3]; first compound 0.8 µM): 0.16
- relative viability ([3]; first compound 2.53 µM): 0.193
- relative viability ([3]; first compound 8 µM): 0.155
- relative viability ([4]; first compound 0.08 µM): 0.381
- relative viability ([4]; first compound 0.253 µM): 0.43
- relative viability ([4]; first compound 0.8 µM): 0.406
- relative viability ([4]; first compound 2.53 µM): 0.426
- relative viability ([4]; first compound 8 µM): 0.349

Cell Line: NCI-H1355
- relative viability ([1]; first compound 0.08 µM): 1.28
- relative viability ([1]; first compound 0.253 µM): 1.25
- relative viability ([1]; first compound 0.8 µM): 1.25
- relative viability ([1]; first compound 2.53 µM): 1.21
- relative viability ([1]; first compound 8 µM): 0.921
- relative viability ([2]; first compound 0.08 µM): 1.02
- relative viability ([2]; first compound 0.253 µM): 0.846
- relative viability ([2]; first compound 0.8 µM): 0.822
- relative viability ([2]; first compound 2.53 µM): 0.815
- relative viability ([2]; first compound 8 µM): 0.595
- relative viability ([3]; first compound 0.08 µM): 0.623
- relative viability ([3]; first compound 0.253 µM): 0.544
- relative viability ([3]; first compound 0.8 µM): 0.52
- relative viability ([3]; first compound 2.53 µM): 0.496
- relative viability ([3]; first compound 8 µM): 0.532
- relative viability ([4]; first compound 0.08 µM): 0.38
- relative viability ([4]; first compound 0.253 µM): 0.382
- relative viability ([4]; first compound 0.8 µM): 0.369
- relative viability ([4]; first compound 2.53 µM): 0.354
- relative viability ([4]; first compound 8 µM): 0.368

Cell Line: NCI-H1755
- relative viability ([1]; first compound 0.08 µM): 0.948
- relative viability ([1]; first compound 0.253 µM): 0.9
- relative viability ([1]; first compound 0.8 µM): 0.962
- relative viability ([1]; first compound 2.53 µM): 1.11
- relative viability ([1]; first compound 8 µM): 0.44
- relative viability ([2]; first compound 0.08 µM): 0.465
- relative viability ([2]; first compound 0.253 µM): 0.446
- relative viability ([2]; first compound 0.8 µM): 0.434
- relative viability ([2]; first compound 2.53 µM): 0.508
- relative viability ([2]; first compound 8 µM): 0.418
- relative viability ([3]; first compound 0.08 µM): 0.553
- relative viability ([3]; first compound 0.253 µM): 0.614
- relative viability ([3]; first compound 0.8 µM): 0.604
- relative viability ([3]; first compound 2.53 µM): 0.547
- relative viability ([3]; first compound 8 µM): 0.421
- relative viability ([4]; first compound 0.08 µM): 0.677
- relative viability ([4]; first compound 0.253 µM): 0.784
- relative viability ([4]; first compound 0.8 µM): 0.721
- relative viability ([4]; first compound 2.53 µM): 0.66
- relative viability ([4]; first compound 8 µM): 0.754

Cell Line: LCLC-97TM1
- relative viability ([1]; first compound 0.253 µM): 0.484
- relative viability ([1]; first compound 0.8 µM): 0.249
- relative viability ([1]; first compound 2.53 µM): 0.408
- relative viability ([1]; first compound 8 µM): 0.597
- relative viability ([2]; first compound 0.08 µM): 0.348
- relative viability ([2]; first compound 0.253 µM): 0.246
- relative viability ([2]; first compound 0.8 µM): 0.288
- relative viability ([2]; first compound 2.53 µM): 0.285
- relative viability ([2]; first compound 8 µM): 0.228
- relative viability ([3]; first compound 0.08 µM): 0.266
- relative viability ([3]; first compound 0.253 µM): 0.166
- relative viability ([3]; first compound 0.8 µM): 0.193
- relative viability ([3]; first compound 2.53 µM): 0.237
- relative viability ([3]; first compound 8 µM): 0.182
- relative viability ([4]; first compound 0.08 µM): 0.234
- relative viability ([4]; first compound 0.253 µM): 0.252
- relative viability ([4]; first compound 0.8 µM): 0.216
- relative viability ([4]; first compound 2.53 µM): 0.253
- relative viability ([4]; first compound 8 µM): 0.181

Cell Line: ChaGo-K-1
- relative viability ([1]; first compound 0.08 µM): 1.24
- relative viability ([1]; first compound 0.253 µM): 0.989
- relative viability ([1]; first compound 0.8 µM): 0.761
- relative viability ([1]; first compound 2.53 µM): 1.34
- relative viability ([1]; first compound 8 µM): 0.94
- relative viability ([2]; first compound 0.08 µM): 0.763
- relative viability ([2]; first compound 0.253 µM): 0.919
- relative viability ([2]; first compound 0.8 µM): 0.925
- relative viability ([2]; first compound 2.53 µM): 0.928
- relative viability ([2]; first compound 8 µM): 0.694
- relative viability ([3]; first compound 0.08 µM): 0.202
- relative viability ([3]; first compound 0.253 µM): 0.244
- relative viability ([3]; first compound 0.8 µM): 0.215
- relative viability ([3]; first compound 2.53 µM): 0.232
- relative viability ([3]; first compound 8 µM): 0.21
- relative viability ([4]; first compound 0.08 µM): 0.495
- relative viability ([4]; first compound 0.253 µM): 0.548
- relative viability ([4]; first compound 0.8 µM): 0.52
- relative viability ([4]; first compound 2.53 µM): 0.629
- relative viability ([4]; first compound 8 µM): 0.46

Cell Line: NCI-H3122
- relative viability ([1]; first compound 0.08 µM): 1.04
- relative viability ([1]; first compound 0.253 µM): 1.04
- relative viability ([1]; first compound 0.8 µM): 0.993
- relative viability ([1]; first compound 2.53 µM): 1.14
- relative viability ([1]; first compound 8 µM): 1.16
- relative viability ([2]; first compound 0.08 µM): 0.86
- relative viability ([2]; first compound 0.253 µM): 1.05
- relative viability ([2]; first compound 0.8 µM): 0.983
- relative viability ([2]; first compound 2.53 µM): 1.14
- relative viability ([2]; first compound 8 µM): 0.59
- relative viability ([3]; first compound 0.08 µM): 0.315
- relative viability ([3]; first compound 0.253 µM): 0.351
- relative viability ([3]; first compound 0.8 µM): 0.392
- relative viability ([3]; first compound 2.53 µM): 0.491
- relative viability ([3]; first compound 8 µM): 0.324
- relative viability ([4]; first compound 0.08 µM): 0.398
- relative viability ([4]; first compound 0.253 µM): 0.434
- relative viability ([4]; first compound 0.8 µM): 0.402
- relative viability ([4]; first compound 2.53 µM): 0.467
- relative viability ([4]; first compound 8 µM): 0.439

From the supplement of paper PMC10307832
